The subject of series [1] is V79 cells.
Experimental: The formation of DNA strand breaks and apurinic/apyrimidinic sites was monitored employing the alkaline comet assay [87], which is part of the OECD guideline of in vivo genotoxicity testings and detects DNA strand breaks (DNA single- and double-strand breaks) and alkali-labile sites [87]. Briefly, after aspiration of the medium and trypsinization, cells were mixed with 0.5% melting agarose and transferred onto agarose-coated (1.5%) slides. After lysis in alkaline buffer (pH 10) (1 h, 4 °C, light protection) and unwinding of the DNA in precooled lysis buffer (pH >13) (20 min, 4 °C, light protection), electrophoresis was performed (electric current: 300 mA constant; 1 V/cm). After neutralization in salt buffer (pH 7.5) and staining with propidium iodide solution (50 µg/mL), comets were evaluated by fluorescence microscopy. Quantification of migrated DNA was performed with TriTek Comet Score™ software Version 1.5, evaluating ≥50 cells per condition (blinded assessment). […] Fold increase in tail intensities of treated cells were calculated by relating the % DNA in tail of treated cells to that of the corresponding untreated controls, which were set to 1.0 (see Figure 2B).
For series [2], the system named is V79 cells. The source holds these as a separate data set.
Experimental: We analyzed the frequency of micronuclei in binucleated cells, as described [86]. Briefly, logarithmically growing cells were treated with cytochalasin B (3 µg/m) for 24 h. After fixation with formaldehyde (3.7% in PBS, 20 min, RT) and washing with PBS, cells were permeabilized using precooled methanol (20 min, −20 °C.) After washing with PBS and rinsing the cell layer with PBS containing Triton X100 (PBST; 0.3% Triton X100 in PBS), DNA was stained by DAPI (4´,6-diamino-2-phenylindole) and the number of micronuclei was evaluated by fluorescence microscopy. Data shown are the mean ± SEM of three independent experiments with ≥1000 binucleated cells evaluated per experimental condition.
The subject of series [3] is SH-SY5Y neuroblastoma cells. Nature of the series: Alamar blue assay (cell viability), SH-SY5Y cells. Format: cell-based, human. As for the experimental part:
(§1) V79 hamster lung cells, which are recommended in the OECD toxicology guidelines for hazard identification (i.e., cytotoxicity and genotoxicity) of chemicals, were purchased from the German Collection of Microorganisms and Cell Cultures (DSMZ, Braunschweig, Germany). They were cultured in Dulbecco´s modified Eagle medium and Ham´s F12 medium (DMEM/F12) (PromoCell, Heidelberg, Germany) containing 10% fetal calf serum at 37 °C in a humidified atmosphere containing 5% CO2. VC8 hamster cells were defective in DNA double-strand break (DSB) repair by homologous recombination (HR) due to the lack of functional BRCA2 protein [69, 70]. VC8 cells were provided by B. Kaina (Institute of Toxicology, Mainz, Germany). Nucleotide excision repair defective XPA and CSB deficient cells were also provided by B. Kaina and were described before. They were grown in DMEM containing 10% fetal calf serum. Human neuroblastoma cells (IMR-32 and SH-SY5Y) were purchased from the German Collection of Microorganisms and Cell Cultures (DSMZ, Braunschweig, Germany) and were used as a model of malignant cells. They were grown in DMEM or RPMI (Roswell park memorial institute) medium, respectively, containing 10% fetal calf serum. If not stated otherwise, HDACi were added to the exponentially growing cells and analyses were performed 6 h to 72 h later.
(§2) Cell viability was determined using the Alamar blue assay, which reflected the mitochondrial activity. Viable cells were characterized by an effective mitochondrial metabolization of the non-fluorescent dye resazurin (Sigma, Steinheim, Germany) to fluorescent resorufin (excitation: 535 nm, emission: 590 nm). Relative viability in the untreated control was set to 100%. In addition, the Neutral red assay, which measures the integrity of lysosomal membranes, was used to monitor cytotoxicity. To this end, cells were incubated with the Neutral red solution (0.01%) in an atmosphere containing 5% CO2 for 90 min before they were fixed (1% formaldehyde/1% CaCl2). Afterwards, the Neutral red that was taken up by the cells was extracted (50% ethanol/1% of acetic acid, 15 min at room temperature (RT)) and absorbance (540 nm) was measured. If not stated otherwise, data are shown as the mean ± standard deviation (SD) of two to three independent experiments each performed in quadruplicate. Approximate IC50 (~IC50, see Supplementary Table S1) were calculated from the corresponding dose-response curves.
A general note: Alamar Blue is a resazurin reagent that responds to reducing activity.

The subject of series [4] is IMR-32 neuroblastoma cells. The series is described as follows: Alamar blue assay (cell viability), IMR-32 cells. Format: cell-based, human. As for the experimental part:
as §1, §2

In series [5] the test system is V79 hamster lung cells. Nature of the series: Neutral red assay (cytotoxicity), V79 cells. It counts as cell-based. As for the experimental part:
as §1, §2

Series [6] has as its system SH-SY5Y neuroblastoma cells. The series is described as follows: Neutral red assay (cytotoxicity), SH-SY5Y cells. Format: cell-based, human. As for the experimental part:
as §1, §2

In series [7] the test system is V79 hamster lung cells. The series is described as follows: Alamar blue assay (cell viability), V79 cells. It counts as cell-based. The following applies: Alamar blue assay, approximate IC50. As for the experimental part:
as §1, §2

The subject of series [8] is IMR-32 neuroblastoma cells. The series is described as follows: Neutral red assay (cytotoxicity), IMR-32 cells. Format: cell-based, human. As for the experimental part:
as §1, §2

In a further series the test system is XPA-deficient cells. The series is described as follows: Viability of XPA-deficient versus proficient fibroblasts (Alamar blue). Format: cell-based, human. To be noted: 72 h, in words. As for the experimental part: Figure 7 Sensitivity of nucleotide excision repair (NER) defective cells to hydroxamic acid- and benzamide-type HDACi. Viability of wild-type human fibroblasts and fibroblasts defective in nucleotide excision repair (NER) pathways (i.e., global genome nucleotide excision repair (GG-NER) or transcription-coupled nucleotide excision repair (TC-NER)) due to a defect in Xeroderma pigmentosum group A protein (XPA) or Cockayne syndrome protein B (CSB), respectively, was analyzed 72 h after the addition of HDACi by the Alamar blue assay, as described in Methods. The DNA intrastrand cross-linking agent cisplatin was used for control. Data shown are the mean ± SD from three independent experiments (n = 3) each performed in triplicate (N = 3); ns, not significant; *, p ≤ 0.05; **, p ≤ 0.01 as compared to the corresponding untreated controls (Student´s t-test).
V79 hamster lung cells, which are recommended in the OECD toxicology guidelines for hazard identification (i.e., cytotoxicity and genotoxicity) of chemicals, were purchased from the German Collection of Microorganisms and Cell Cultures (DSMZ, Braunschweig, Germany). They were cultured in Dulbecco´s modified Eagle medium and Ham´s F12 medium (DMEM/F12) (PromoCell, Heidelberg, Germany) containing 10% fetal calf serum at 37 °C in a humidified atmosphere containing 5% CO2. VC8 hamster cells were defective in DNA double-strand break (DSB) repair by homologous recombination (HR) due to the lack of functional BRCA2 protein [69, 70]. VC8 cells were provided by B. Kaina (Institute of Toxicology, Mainz, Germany). Nucleotide excision repair defective XPA and CSB deficient cells were also provided by B. Kaina and were described before. […]
Cell viability was determined using the Alamar blue assay, which reflected the mitochondrial activity. […] Afterwards, the Neutral red that was taken up by the cells was extracted (50% ethanol/1% of acetic acid, 15 min at room temperature (RT)) and absorbance (540 nm) was measured. […] Approximate IC50 (~IC50, see Supplementary Table S1) were calculated from the corresponding dose-response curves.

For series [9], the system named is VC8 hamster cells (BRCA1/2 defect). Nature of the series: Viability of DSB repair defective VC8 versus wild-type V79 cells (Alamar blue). Format: cell-based. To be noted: 72 h, Alamar blue, in words. As for the experimental part:
as §1, §2

Setting [10] is: 24 h, approximate IC50, read-out: IC50 - 24 h Treatment, SH-SY5Y.
Where [11] appears, read: 72 h, approximate IC50, read-out: IC50 - 72 h Treatment, SH-SY5Y.
Setting [12] is: 24 h, approximate IC50, read-out: IC50 - 24 h Treatment, IMR-32.
[13] abbreviates: 72 h, approximate IC50, read-out: IC50 - 72 h Treatment, IMR-32.

For `COS(C)(=O)=O` [MMS, methyl methanesulfonate], in the series with V79 cells [1], the “DNA strand breaks (comet assay)” value is “substantially increased the level of DNA strand breaks”. Besides, the “Mean (% DNA in tail)” value in the series on V79 cells [1] (hamster, 0.25 mM) was 50.9 % DNA in tail. For the same molecule, the frequency of micronuclei entry with V79 cells [2] is “substantial clastogenicity”.
As for `CCCCON(Cc1ccc(C(=O)NO)cc1)C(=O)Nc1cc(C)cc(C)c1` [MPK264], the IC50 was determined as 10 µM in series [3] (setting [10]); 3 µM in series [3] (setting [11]); 12 µM in series [4] (setting [12]); 2 µM in series [4] (setting [13]); 20 µM with V79 hamster lung cells [5] (24 h, approximate IC50, read-out: IC50 - 24 h Treatment, V79); 17 µM with V79 hamster lung cells [5] (72 h, approximate IC50, read-out: IC50 - 72 h Treatment, V79). Moreover, the IC50 in series [6] (setting [10]) came out at 24 µM; in [6] (setting [11]), 3 µM; in the series on V79 hamster lung cells [7] (24 h, read-out: IC50 - 24 h Treatment, V79) it was 22 µM; with V79 hamster lung cells [7] (72 h, read-out: IC50 - 72 h Treatment, V79), 19 µM; in series [8] (setting [12]) it was 16 µM; in series [8] (setting [13]), 2 µM.
As for `N.N.[Cl][Pt][Cl]` [cisplatin], the “sensitivity of XPA-deficient versus XPA proficient cells” value with XPA-deficient cells is “XPA deficient cells are hypersensitive”.
Regarding `Nc1ccccc1NC(=O)c1ccc(CNc2nccc(-c3cccnc3)n2)cc1` [mocetinostat], the “sensitivity of VC8 cells versus V79 cells” value in series [9] is “hypersensitive”.
Turning to `C/C=C1\NC(=O)[C@H]2CSSCC/C=C/[C@H](CC(=O)N[C@H](C(C)C)C(=O)N2)OC(=O)[C@H](C(C)C)NC1=O` [romidepsin], in series [9], the “sensitivity of VC8 cells versus V79 cells” value was “hypersensitive”.

In general, IC50 refers to the midpoint of a concentration-inhibition curve.

Values taken from publication PMC7370100, “In Vitro Assessment of the Genotoxic Hazard of Novel Hydroxamic Acid- and Benzamide-Type Histone Deacetylase Inhibitors (HDACi)” (International Journal of Molecular Sciences, 2020).
